Results published in US20130071853A1, “METHODS FOR IDENTIFYING COMPOSITIONS THAT ALTER WILDTYPE EXPRESSION OF GENES AND PROTEINS IN A PLANT CELL” (Dow Agrosciences LLC, priority 2010, published 2013).

Legend:
[1] = test system: Arabidopsis genes on the microarray; assay: Agilent single-color global gene expression profiling of Arabidopsis leaf tissue 2 h after spray treatment; format: in vivo, Arabidopsis thaliana (variety Columbia); settings: for Regulation^a: direction per probe/gene
Method: Thirteen Arabidopsis seeds (variety Columbia) were planted in 6 inch pots filled with sandy clay medium. After emergence, pots were thinned to 10 plants per pot. Plants were grown in a greenhouse with a 12 hr light cycle and watered every 24 hours or as needed to maintain stress free conditions. When the Arabidopsis plants reached the vegetative (>BBCH 11<BBCH 30) stage (approx. 2-3 wks from planting), the pots were arranged into a randomized complete block design with 10 plants with 3 replications per treatment. The plants were treated using a standard CO2 sprayer with 20 gal/A carrier volume.
Control: Oil/Adjuvant check (0.035% v/v SILWET adjuvant L-77)
Compound 1: A17492F (MCP) 25 g ai /ha+0.035% SILWET adjuvant
Compound 2: COMPASS fungicide 1x+0.035% SILWET adjuvant
Combination: 1 MCP 25 g/ha+COMPASS fungicide 1x
(§1) Two hours after the spray application, leaves that had received the spray were sampled. For each treatment, two leaves were taken from each of the 10 plants and combined into a 50 ml polypropylene tube. Samples were immediately frozen on dry ice and sent on dry ice overnight to the laboratory for processing.
(§2) A single-color Agilent global gene expression profiling design was used to define differentially expressed genes for treated in reference to untreated Arabidopsis leaf tissues. Three technical array replicates (Agilent Technologies Inc., Santa Clara, Calif.) were hybridized to compare different transcript abundance between leaf tissues treated with Strobilurin and/or 1-MCP in reference to untreated leaf tissues. Arabidopsis slides, Product #G2519F, Design ID 021169 were obtained from Agilent Technologies.
(§3) Samples of 30-50 mg of frozen leaf tissues were resuspended in 450 μL of extraction buffer RLT from the RNeasy Kit for RNA extraction (Qiagen, Valencia, Calif.). Tissues were then ground to a fine powder by adding one 3 mm grinding bead to each frozen sample and grinding for 3 minutes using a GenoGrinder at a rate of 300, 1×. Total RNA was purified following the manufacturer's instructions. Purified total RNA was then quantified and quality controlled using a NanoDrop spectrophotometer and visualized by standard 1% Agarose gel electrophoresis.
(§4) For labeling, a total of 1.0 μg of purified RNA from treated and untreated tissues was reverse transcribed, amplified and labeled with Cy3-CTP following the Agilent (Santa Clara, Calif.) one-color microarray-based gene expression QuickAmp labeling protocol. Since Agilent Arabidopsis microarrays for gene expression (Product #G2519F, Design ID 021169) contain internal spike-in controls a one-color RNA spike-in kit (Agilent, Santa Clara, Calif.) was also labeled according to manufacturer's instructions. Samples were reverse transcribed using MMLV Reverse Transcriptase and amplified using a T7 RNA Polymerase. After amplification cRNA was purified using Qiagen's RNeasy mini spin columns and quantified using a NanoDrop spectrophotometer. Specific activity for Cy3 was determined by the following formula: (Concentration of Cy3)/(Concentration of cRNA)*1000=pmol of Cy3 per μg of cRNA. Samples for hybridization were normalized to 825 ng with a specific activity of >8.0 pmol of Cy3 per μg of cRNA.
Oligo gene expression arrays were hybridized using the Agilent Technologies (Santa Clara, Calif.) Gene Expression Hybridization kit, Wash Buffer kit, Stabilization and Drying Solution following the manufacturer's instructions. Hybridizations were carried out on a fully automated TECAN HS4800 PRO (TECAN U.S., Research Triangle Park, N.C.) hybridization instrument. The hybridization mixture was injected at 65° C. and incubated with agitation for 17 hrs after following a slide pre-hybridization step at 65° C. for 30 seconds. Slides were then washed at 37° C. for 1 minute using the Agilent GE Wash #1 followed by a second wash at 30° C. with Agilent GE Wash #2 for 1 minute and a final drying step using Nitrogen gas for 2 minutes and 30 seconds at 30° C. […]

[2] = test system: maize transcripts (corn genes on the microarray); assay: Agilent single-color global gene expression profiling of corn leaf tissue 2 h after spray treatment; format: in vivo, Zea maize (corn); settings: for Regulation: Table 1: corn genes, 1-MCP alone, direction of change per probe/gene
Method: Hybrid corn seed (one plant per pot) was planted in 1 quart pots filled with FAFARD 3B™ potting mix (Conrad Fafard, Inc., Agawam, Mass.). Corn was grown in a greenhouse with a 12 hr light cycle and watered every 24 hours or as needed to maintain stress free conditions. When the corn plants reached the V10 growth stage, the pots were arranged into a randomized complete block design with 4 plants with 3 replications per treatment. Corn plants were treated using a standard CO2 sprayer with 20 gal/acre carrier volume.
Treatments were: • Control: Oil/Adjuvant check using 0.035% v/v the organosilicone surfactant SILWET L-77 (Helena Chemical Co., Collierville, Tenn.) • Compound 1: A17492F (MCP) 25 g active ingredient/hectare (ai/ha)+0.035% SILWET surfactant • Compound 2: COMPASS fungicide 1x+0.035% SILWET surfactant • Combination (1 and 2): 1 MCP 25 g/ha+COMPASS fungicide 1x
as §1, with “application, upper” for “application,”, “plant, five, 2 inch pieces of” for “treatment, two”, “taken, cut into small pieces” for “taken from each of the 10 plants”
as §2, with “maize” for “Arabidopsis”, “the COMPASS fungicide” for “Strobilurin”, “tissues.” for “tissues. Arabidopsis slides, Product #G2519F, Design ID 021169 were obtained from Agilent Technologies.”
A Dow AgroSciences custom generated 60-mer comprehensive transcriptome-wide Zea maize oligonucleotide array was used to carry out microarray hybridizations. This array represents more than 58,000 different maize transcripts (Agilent Technologies Inc., Santa Clara, Calif.) obtained from public data sources. Microarray chips were printed using an Agilent format 2×105K, including 10 copies of 100 probes, 2 copies of 44,196 probes 1 copy of 14,355 probes in addition to 1,325 Agilent spike-in controls. The 60-mer unique and specific oligonucleotides were synthesized in-situ using the Sure-Print technology from the manufacturer.
as §3, with “RNeasy™” for “RNeasy”, “GenoGrinder instrument” for “GenoGrinder”, “NanoDrop™” for “NanoDrop”
as §4, with “QuickAmp™” for “QuickAmp”, “Dow AgroSciences-generated Zea maize AGILENT™” for “Agilent Arabidopsis”, “(P/N G4503A,” for “(Product #G2519F,”, “022232)” for “021169)”, “(Concentration of Cy3)/(Concentration of cRNA)*1000=pmol of Cy3 per μg of cRNA. Samples for hybridization were normalized to 825 ng with a specific activity of >8.0 pmol of Cy3 per μg of cRNA.” left out
Oligo gene expression arrays were hybridized using the Agilent Technologies (Santa Clara, Calif.) Gene Expression Hybridization kit, Wash Buffer kit, Stabilization and Drying Solution following the manufacturer's instructions. Hybridizations were carried out on a fully automated TECAN HS4800 PRO™ (TECAN U.S., Research Triangle Park, N.C.). […]

[3] = Arabidopsis leaves, 2 h after spray, ≧5 fold change
[4] = corn leaves, 2 h after spray, ≧2 fold change

What does the source list for `CC1=CC1` [Compound 1-MCP, 1-methylcyclopropene]?
overall effect of treatment on gene expression ([1]; Arabidopsis): reduction in stress-related gene expression; genes differentially expressed on the microarray vs untreated [1, 3]: 411 genes; subset of genes changed uniquely in response to this treatment [1, 3]: 202 genes; common genes following treatment with either 1-MCP or COMPASS alone ([1]; Arabidopsis, ≧5 fold change): 165 genes; Regulation^a ([1]; Table 3: Arabidopsis genes, 1-MCP alone, probe A_84_P20410): up; Regulation^a ([1]; Table 3: Arabidopsis genes, 1-MCP alone, probe A_84_P786760): down; Regulation^a ([1]; Table 5: common genes, first column pair (a), probe A_84_P13916): down; Regulation^a ([1]; Table 5: common genes, first column pair (a), probe A_84_P507728): up; Regulation ([2]; probe ZmOL3000012): up; Regulation ([2]; probe ZmOL3007441): down; Regulation ([2]; probe ZmOL3020067): Down; Regulation ([2]; probe ZmOL3050321_2): Up; expression of carbonic anhydrase ([2]; corn): decreased; overall effect of treatment on gene expression ([2]; corn): reduction in stress-related gene expression; genes differentially expressed on the microarray vs untreated [2, 4]: 934 genes; subset of genes changed uniquely in response to this treatment [2, 4]: 362 genes; genes involved in translation whose expression changed that were induced ([2]; corn, genes unique to the treatment): 9 out of 10
